These results are taken from PMC10892288, “Early Stage Preclinical Formulation Strategies to Alter the Pharmacokinetic Profile of Two Small Molecule Therapeutics” (Pharmaceuticals, 2024).

A short description of series [1]: Log P (physiochemical properties). The series is classed as physicochemical.
The nature of series [2]: Permeability (physiochemical properties). The class given is in vitro ADME.
Series [3] can be described thus: Water solubility (physiochemical properties). The series is classed as physicochemical.
Series [4] is described as follows: pKa (physiochemical properties). The series is classed as physicochemical. The source says: Table 1 Physiochemical properties of […] and […]. | column: […]; […]
The target of a further series is HPK1 (Homo sapiens, UniProt Q92918). Put plainly: Potency (IC50) of HPK1 inhibitor.
Sequence of HPK1 (Q92918 whole entry, species assumed): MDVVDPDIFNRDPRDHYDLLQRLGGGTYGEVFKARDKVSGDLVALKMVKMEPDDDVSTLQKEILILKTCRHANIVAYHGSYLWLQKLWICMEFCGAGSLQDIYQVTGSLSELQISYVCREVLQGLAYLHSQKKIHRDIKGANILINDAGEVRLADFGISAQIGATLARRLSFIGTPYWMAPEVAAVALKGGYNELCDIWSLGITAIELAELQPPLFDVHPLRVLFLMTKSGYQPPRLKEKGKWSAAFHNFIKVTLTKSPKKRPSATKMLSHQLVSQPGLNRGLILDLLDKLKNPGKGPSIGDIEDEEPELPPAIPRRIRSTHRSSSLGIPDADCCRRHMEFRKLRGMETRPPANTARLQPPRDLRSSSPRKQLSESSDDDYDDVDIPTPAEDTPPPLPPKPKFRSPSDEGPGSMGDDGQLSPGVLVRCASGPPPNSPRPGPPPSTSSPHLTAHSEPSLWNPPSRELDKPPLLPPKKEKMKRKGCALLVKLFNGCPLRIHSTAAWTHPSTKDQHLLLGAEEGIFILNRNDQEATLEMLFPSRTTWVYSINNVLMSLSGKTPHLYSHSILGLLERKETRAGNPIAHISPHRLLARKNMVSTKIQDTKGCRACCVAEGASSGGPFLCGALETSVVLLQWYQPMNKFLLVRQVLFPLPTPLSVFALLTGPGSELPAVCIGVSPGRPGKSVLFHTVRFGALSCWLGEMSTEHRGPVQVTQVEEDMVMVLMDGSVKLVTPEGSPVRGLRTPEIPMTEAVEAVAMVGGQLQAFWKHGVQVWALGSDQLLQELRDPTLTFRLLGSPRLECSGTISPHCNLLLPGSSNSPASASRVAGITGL
Series [5] can be described thus: Vehicle screening for solution or suspension formulations. The series is classed as physicochemical. Conditions: 100% PEG400. As for the experimental part:
Based on the target concentration, G7883 was screened at 3.3 mg/mL in three different vehicles of 100%PEG400, 10%DMSO in 90%PEG400, and 20%DMSO in 80%PEG400 to generate a stable solution. […] A total of 50% DMSO is the maximum amount compatible with the iPRECIO pump system. Based on the target concentration, G6893 was screened at 5 mg/mL in four different vehicles as follows: 100% PEG400, 20% DMSO in 80% PEG400, 20% DMA and 40% PG in 40% PEG400, and 10% EtOH and 20% HPbCD in 70% water at pH 4.5. G6893 achieved a solution at the target concentration of 5 mg/mL in 100% PEG400 and maintained a solution without precipitation after dilution in PBS buffer.
G7883 was screened in different oil vehicles including corn, coconut, paraffin, soybean, and sunflower oil.

Series [6] is described as follows: Mouse IV infusion of G6893 by iPRECIO pump. The series is classed as in vivo, female C57BL-6 mice. Conditions: 0.5 mg/kg/h, 2.5 mg/mL in 100% PEG400, over 96 h. From the text: This is often a concern for molecules in early drug discovery stages. Various formulation and delivery strategies have been devised to modify the systemic PK profiles of drug molecules, encompassing nanoparticles, microparticles, lipid and polymer conjugation, implanted infusion pump device technologies, and subcutaneous depots. Here, we examined two strategies aimed at maintaining the drug concentration at a designed target concentration for the maximum duration potentially needed for proof of concept studies. The initial approach involved using an implantable device, the iPRECIO pump that allows for a controlled and sustained infusion, as opposed to a typical bolus IV injection. The infusion pump strategies can be a promising tool to achieve the desired delivery profile of a compound, given the solubility requirements based on the intended target release and PK profile. […]
All plasma and cell media concentrations of G7883 and G6893 were determined using liquid chromatography–tandem mass spectrometry after protein precipitation with acetonitrile and injection of the supernatant onto the column (Waters ACQUITY UPLC BEH C18 1.7 μm, 2.1 × 50 mm for G7883 and G6893). […] The lower limit of quantitation of the assay was 5.1 ng/mL, and the dilution quality control concentration was set at 10 ng/mL with acceptance criteria for accuracy and precision of 25%.

The nature of series [7]: Mouse PK of G6893, PO in MCT vehicle. Conditions: female, C57BL-6, plasma, 30 mg/kg, PO 30 mpk, MCT vehicle pH 2.5, mouse. The series is classed as in vivo, female C57BL-6 mice. As for the experimental part: A total of 0.6% w/v Methylcellulose, 0.2% w/v Tween 80 in water (MCT) was prepared by slowly adding Methylcellulose (Methylocel A15 LV; CAS 9004-67-5, Part ID: 64605-500G-F 27.5-31.5% Methoxyl basis, Sigma-Aldrich, St. Louis, MO, USA) in small portions to prevent clumping while stirring into water at 70–80 °C. Once a homogeneous suspension formed, Tween 80 (Polysorbate 80; CAS#9005-65-6 (Polyoxyethylene (20) Sorbitan Monooleate; Tween 80) Part ID: PO138, Spectrum Chemical, New Brunswick, NJ, USA) was added and stirred until fully dissolved. Vehicle was filtered through 0.22 µm PES (Corning REF no. 431098) prior to adding to the compound for dosing. Respective compound was added based on the target concentration to the MCT vehicle and stirred at 35 °C until the power was well-dispersed. Formulations were homogenized through a polytron homogenizer and then sonicated in a water bath sonicator until a homogeneous suspension was achieved.
The pharmacokinetics of G7883 were determined in female CD-1 mice obtained from Charles River Laboratories (Hollister, CA, USA) with a body weight ranging from 20 to 25 g. The pharmacokinetics of G6893 were determined in female C57BL-6 mice (Lingchang/Vital River Laboratory Animal Co., Ltd., Shanghai/Beijing, China) with a body weight ranging from 20 to 35 g. Three mice were given an oral dose of G7883 formulated in 0.6% Methylcellulose, 0.2% Tween80 in water (MCT) at 25 mg/kg and 250 mg/kg with a dosing volume of 10 mL/kg. Food and water were available ad libitum to the animals. Three mice were given an oral dose of G6893 formulated in 0.6% methylcellulose; 0.2% Tween80 in water with pH adjusted to 2.5 at 30 mg/kg and a dose volume of 5 mL/kg. For both compounds, G7883 and G6893, 15 µL of blood was collected serially at 0. 25, 0.5, 1, 2, 4, 6, 8, and 24 h post-dose and diluted in 60 µL of 1.7 mg/mL potassium K2EDTA water. The frozen blood samples were stored at −70 °C or lower until analysis.
All plasma and cell media concentrations of G7883 and G6893 were determined using liquid chromatography–tandem mass spectrometry after protein precipitation with acetonitrile and injection of the supernatant onto the column (Waters ACQUITY UPLC BEH C18 1.7 μm, 2.1 × 50 mm for G7883 and G6893). The aqueous mobile phase was 0.1% formic acid, 2 mM ammonium formate in water/acetonitrile (v:v, 95:5), and the organic mobile phase was 0.1% formic acid, 2 mM ammonium formate in acetonitrile/water (v:v, 95:5). An AB Sciex API 4000 Triple Quad instrument was used for detecting G7883 and G6893 (Figure S2). The electrospray ionization source in both columns was operated in the positive ion and multiple reaction monitoring (MRM) detection modes. The MRM transitions for G7883 and G6893 were m/z 462.2 (Q1) and 253.10 (Q3) and m/z 454.2 (Q1) and 325.9 (Q3), respectively. The dynamic range of both assays was 0.50–50.0 ng/mL, and the total run time was 1.6 min. The lower limit of quantitation of the assay was […], and the dilution quality control concentration was set at 10 ng/mL with acceptance criteria for accuracy and precision of 25%.

In series [1], `Cc1c(-c2cc3cc(NC(=O)O[C@H]4COC[C@@H]4C)ncc3c(N)c2F)cnc2c1NCCO2` (racemic) [G6893, [rac-(3R,4S)-4-methyltetra hydrofuran-3-yl]N-[8-amino-7-fluoro-6-(8-methyl-2,3-dihydro-1H-pyrido[2,3-b][1,4]oxazin-7-yl)-3-isoquinolyl]carbamate] came in with a logP of 2.69. Besides, in series [2], the “permeability (in words)” value is “high permeability”. The same compound gave a Papp in series [2] (not told) of 150 nm/s. The “solubility (in words)” value in series [3] is recorded as “low solubility”. Further, the solubility in series [3] (water) is less than 1 µg/mL. Also, the pKa in series [4] was determined as 2.53. This compound had an IC50 on HPK1 of 0.56 µM. The “concentration at which a solution was achieved” value in series [5] was not below 5000 µg/mL. Further, the “plasma concentration relative to target concentration (IC50)” value in series [6] is listed as “successfully maintained the target concentration profile”. Moreover, in series [7] (mean ± SD), the Cmax came to 3.8 ± 1.68 µM, the Tmax stood at 0.667 ± 0.289 h, the bioavailability turned out to be 45.5 ± 14% and the half-life was 3.07 ± 1.92 h. The AUC(0-t) in series [7] (read-out: AUC0 to 8) was determined as 19.5 µM·h.
